Reference: patent publication US9309276B2, “Synthetic lipid A derivative” (University of Georgia Research Foundation, Inc., priority 2007, dated 2016)
pIC50: −log10 of the molar value. Like-named read-outs stand apart in the source and are kept apart here.

Columns and labels:
Format in all cases: cell-based
MM6 cells = assay: Antagonism of E. coli LPS-induced TNF-α production in human monocytic MM6 cells; details: 5.5 h, read-out: IC50 (concentration producing 50% inhibition) of TNF production induced by E. coli LPS
Procedure: TNF-α concentrations were measured after preincubation of MM6 cells with increasing concentrations of 103 or 104 as indicated for 1 h at 37° C., followed by 5.5 h of incubation with E. coli LPS (1 ng mL^−1). Results are expressed as percentage of cytokine concentration of control cells, which are incubated only with E. coli LPS.
Compounds that lack proinflammatory properties may still interact with relevant receptors (TLR4/MD2/CD14), and thereby inhibit TNF-α production induced by E. coli LPS. […]
(§1) On the day of the exposure assay differentiated MM6 cells were harvested by centrifugation and suspended (10^6 cells mL^−1) in tissue culture tubes and RAW 264.7 γNO(−) cells were plated as 2×10^5 cells/well in 96-well tissue culture plates (Nunc). […] Concentrations of human TNF-α protein in culture supernatants were determined by a solid phase sandwich ELISA. […] After the reaction was stopped by adding peroxidase stop solution (Kirkegaard & Perry Laboratories), the absorbance was measured at 405 nm using a microplate reader (BMG Labtech). Cytokine DuoSet ELISA Development Kits (R&D Systems) were used for the cytokine quantification of mouse TNF-α, mouse IL-6, mouse IP-10 and mouse IL-1β according to the manufacturer's instructions. The absorbance was measured at 450 nm with wavelength correction set to 540 nm. Concentrations of mouse IFN-β in culture supernatants were determined as follows. […]

human TLR4/MD2/CD14 = biological target: T1, human TLR4/MD2/CD14 (Homo sapiens, UniProt O00206+Q9Y6Y9); assay: NF-κB activation in HEK 293T cells stably transfected with human TLR4/MD2/CD14; details: 103/104 at 0.1, 1 and 10 μg mL−1; E. coli LPS 10 ng mL−1; 4 h
T1 construct: host or cells: HEK 293T
Procedure: Induction of NF-κB activation was determined in triplicate cultures of HEK 293T cells stably transfected with human or mouse (a) TLR4/MD2/CD14 and (b) TLR2 and transiently transfected with pELAM-Luc and pRL-TK plasmids. Forty-four h post-transfection, cells were treated with (B) E. coli LPS (10 ng mL^−1), (C) Pam3CysSK4 (1 μg mL^−1), (D, E and F) 103 (0.1, 1 and 10 μg mL^−1, respectively), (G, H and I) 104 (0.1, 1 and 10 μg mL^−1, respectively) or (A) were left untreated (control). Forty-eight h post-transfection, NF-κB activation was determined by firefly luciferase activity relative to Renilla luciferase activity. n.a. indicates not analyzed. […]
The day before transfection, HEK 293T wild type cells and HEK 293T cells stably transfected with human and murine TLR4/MD2/CD14 and human and murine TLR2 were plated in 96-well tissue culture plates (16,000 cells/well). […] The luciferase activity was measured using the Dual-Luciferase Reporter Assay System (Promega) according to the manufacturer's instructions and a combination luminometer/fluorometer microplate reader (BMG Labtech). […]

mouse TLR2 = biological target: T2, mouse TLR2 (Mus musculus, UniProt Q9QUN7); assay: NF-κB activation in HEK 293T cells stably transfected with mouse TLR2; details: 103/104 at 0.1, 1 and 10 μg mL−1; Pam3CysSK4 1 μg mL−1; 4 h
T2 construct: host or cells: HEK 293T
Procedure: Induction of NF-κB activation was determined in triplicate cultures of HEK 293T cells stably transfected with human or mouse (a) TLR4/MD2/CD14 and (b) TLR2 and transiently transfected with pELAM-Luc and pRL-TK plasmids. Forty-four h post-transfection, cells were treated with (B) E. coli LPS (10 ng mL^−1), (C) Pam3CysSK4 (1 μg mL^−1), (D, E and F) 103 (0.1, 1 and 10 μg mL^−1, respectively), (G, H and I) 104 (0.1, 1 and 10 μg mL^−1, respectively) or (A) were left untreated (control). Forty-eight h post-transfection, NF-κB activation was determined by firefly luciferase activity relative to Renilla luciferase activity. n.a. indicates not analyzed.
To examine the ability of the synthetic compounds to induce activation of NF-κB, HEK 293T cells were employed that were stably transfected with various immune receptors and transiently transfected with a plasmid containing the reporter gene pELAM-Luc (NF-κB-dependent firefly luciferase reporter vector) and a plasmid containing the control gene pRL-TK (Renilla luciferase control reporter vector) (FIG. 11). […] Although compound 104 is a weak activator of mouse TLR4, it could not induce the secretion of cytokines.
The day before transfection, HEK 293T wild type cells and HEK 293T cells stably transfected with human and murine TLR4/MD2/CD14 and human and murine TLR2 were plated in 96-well tissue culture plates (16,000 cells/well). The next day, cells were transiently transfected using PolyFect Transfection Reagent (Qiagen) with expression plasmids pELAM-Luc (NF-κB-dependent firefly luciferase reporter plasmid, 50 ng/well) (Chow et al., J. Biol. Chem., 1999, 274, 10689-10692) and pRL-TK (Renilla luciferase control reporter vector, 1 ng/well; Promega) as an internal control to normalize experimental variations. […] The luciferase activity was measured using the Dual-Luciferase Reporter Assay System (Promega) according to the manufacturer's instructions and a combination luminometer/fluorometer microplate reader (BMG Labtech). […]

RAW cells = assay: Antagonism of E. coli LPS-induced TNF-α production in mouse macrophages (RAW cells); details: mouse cell line, E. coli LPS (10 ng/mL), 5.5 h
Procedure: Compounds that lack proinflammatory properties may still interact with relevant receptors (TLR4/MD2/CD14), and thereby inhibit TNF-α production induced by E. coli LPS. Thus, the human monocytic cells and mouse macrophages (MM6 and RAW cells) were exposed to a combination of E. coli LPS (10 ng/mL) and a wide range of concentrations of lipid As 103 and 104 and, after an incubation time of 5.5 h, the supernatant was examined for human or mouse TNF-a.
as §1

T1 sequence (O00206 24-839): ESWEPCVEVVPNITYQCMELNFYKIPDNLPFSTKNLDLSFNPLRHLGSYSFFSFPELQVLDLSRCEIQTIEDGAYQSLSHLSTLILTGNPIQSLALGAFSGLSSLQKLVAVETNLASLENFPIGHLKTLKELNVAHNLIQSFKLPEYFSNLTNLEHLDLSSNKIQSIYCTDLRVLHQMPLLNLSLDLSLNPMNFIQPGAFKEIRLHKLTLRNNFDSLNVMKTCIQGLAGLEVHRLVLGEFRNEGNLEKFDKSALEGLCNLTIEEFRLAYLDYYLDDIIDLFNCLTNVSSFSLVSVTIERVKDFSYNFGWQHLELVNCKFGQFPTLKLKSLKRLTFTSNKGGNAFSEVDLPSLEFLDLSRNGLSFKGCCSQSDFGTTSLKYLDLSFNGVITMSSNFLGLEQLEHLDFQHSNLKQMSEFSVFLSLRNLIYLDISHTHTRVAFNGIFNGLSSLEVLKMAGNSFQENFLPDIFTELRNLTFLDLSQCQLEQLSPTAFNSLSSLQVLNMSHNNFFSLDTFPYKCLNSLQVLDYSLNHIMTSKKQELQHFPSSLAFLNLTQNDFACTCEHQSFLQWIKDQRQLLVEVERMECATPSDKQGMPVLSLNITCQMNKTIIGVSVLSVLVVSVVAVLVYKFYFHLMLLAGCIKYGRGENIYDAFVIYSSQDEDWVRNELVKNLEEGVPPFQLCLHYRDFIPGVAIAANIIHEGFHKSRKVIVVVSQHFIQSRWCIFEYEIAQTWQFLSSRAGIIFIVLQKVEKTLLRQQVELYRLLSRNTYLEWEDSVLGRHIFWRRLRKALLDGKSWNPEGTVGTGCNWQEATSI
T1 sequence (Q9Y6Y9 19-160): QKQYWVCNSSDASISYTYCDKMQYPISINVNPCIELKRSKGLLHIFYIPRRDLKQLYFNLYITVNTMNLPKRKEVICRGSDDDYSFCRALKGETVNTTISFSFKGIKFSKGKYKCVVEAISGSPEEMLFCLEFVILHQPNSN
T2 sequence (Q9QUN7 25-784): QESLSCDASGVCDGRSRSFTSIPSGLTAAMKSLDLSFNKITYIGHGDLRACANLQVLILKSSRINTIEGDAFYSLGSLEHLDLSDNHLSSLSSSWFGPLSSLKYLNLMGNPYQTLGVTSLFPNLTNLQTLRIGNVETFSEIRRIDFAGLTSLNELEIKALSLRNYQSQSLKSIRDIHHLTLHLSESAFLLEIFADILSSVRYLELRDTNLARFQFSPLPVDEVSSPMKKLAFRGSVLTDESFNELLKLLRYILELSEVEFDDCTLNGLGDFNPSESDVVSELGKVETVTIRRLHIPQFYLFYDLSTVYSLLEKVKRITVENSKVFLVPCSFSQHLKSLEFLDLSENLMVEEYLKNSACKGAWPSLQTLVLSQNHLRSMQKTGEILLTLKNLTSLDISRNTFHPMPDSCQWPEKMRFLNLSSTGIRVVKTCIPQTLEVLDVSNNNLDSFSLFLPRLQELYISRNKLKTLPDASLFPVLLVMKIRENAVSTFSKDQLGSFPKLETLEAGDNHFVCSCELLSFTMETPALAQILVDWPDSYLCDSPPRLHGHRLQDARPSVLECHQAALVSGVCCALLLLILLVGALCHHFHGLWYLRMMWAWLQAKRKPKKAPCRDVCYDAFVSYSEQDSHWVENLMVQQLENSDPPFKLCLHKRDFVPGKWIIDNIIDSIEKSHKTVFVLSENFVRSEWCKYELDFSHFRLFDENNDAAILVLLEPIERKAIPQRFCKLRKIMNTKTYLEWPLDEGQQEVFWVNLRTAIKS

## CCCCCCCCCCCCCCCC(=O)O[C@H](CCCCCCCCCCCC(C)C)CC(=O)N[C@H]1[C@H](OC[C@H]2O[C@H](OP(=O)(O)O)[C@H](NC(=O)C[C@H](O)CCCCCCCCCCCC(C)C)[C@@H](OC(=O)C[C@H](O)CCCCCCCCCCCCC)[C@@H]2O)O[C@H](CO)[C@@H](O)[C@@H]1O [Compound 103, 6-O-{2-Deoxy-2-[(R)-3-hexadecanoyloxy-15-methyl-hexadecanoylamino]-β-D-glucopyranosyl}-3-O—[(R)-3-hydroxy-hexadecanoyl]-2-deoxy-2-[(R)-3-hydroxy-15-methyl-hexadecanoylamino]-α-D-glucopyranose 1-phosphate]
MM6 cells; human MM6 cells, E. coli LPS (10 ng/mL)
  pIC50: 6.80
Human TLR4/MD2/CD14
  NF-κB activation, human TLR4/MD2/CD14: No activation of NF-κB
Mouse TLR2
  NF-κB activation, mouse TLR2: No activation of NF-κB
RAW cells
  inhibition of TNF-α production induced by E. coli LPS: marginal inhibition

## CCCCCCCCCCCCCCCC(=O)O[C@H](CCCCCCCCCCCC(C)C)CC(=O)N[C@H]1[C@H](OC[C@H]2O[C@H](OP(=O)(O)O)[C@H](NC(=O)C[C@H](O)CCCCCCCCCCCC(C)C)[C@@H](O)[C@@H]2O)O[C@H](CO)[C@@H](O)[C@@H]1ONC(=O)C[C@H](O)CCCCCCCCCC(C)C [Compound 104, 6-O-{2-Deoxy-2-[(R)-3-hexadecanoyloxy-15-methyl-hexadecanoylamino]-3-O—[(R)-3-hydroxy-13-methyl-tetradecanoylamino]-β-D-glucopyranosyl}-2-deoxy-2-[(R)-3-hydroxy-15-methyl-hexadecanoylamino]-α-D-glucopyranose 1-phosphate]
MM6 cells; Homo sapiens
  pIC50: 5.49
Human TLR4/MD2/CD14
  NF-κB activation, human TLR4/MD2/CD14: No activation of NF-κB
Mouse TLR2
  NF-κB activation, mouse TLR2: No activation of NF-κB
RAW cells
  inhibition of TNF-α production induced by E. coli LPS: marginal inhibition
